Data published in patent US20240277796A1, “METHODS FOR INHIBITING RAS” (Revolution Medicines, Inc., priority 2021, published 2024).
Several values for one entry are separate records, joined by “and”; a condition that tells them apart may be missing. Identical values can stand only once. Like-named read-outs stand apart in the source and are kept apart here.

How the values were obtained:
[1] = 18-membered ring, DCM
NCI-H358 (K-Ras G12C) = assay: pERK potency assay, NCI-H358; format: cell-based; conditions: Homo sapiens; NCI-H358 cells, 4 hours incubation with compound
Protocol: The purpose of this assay was to measure the ability of test compounds to inhibit K-Ras in cells. Activated K-Ras induces increased phosphorylation of ERK at Threonine 202 and Tyrosine 204 (pERK). This procedure measures a decrease in cellular pERK in response to test compounds. The procedure described below in NCI-H358 cells is applicable to K-Ras G12C. […]
NCI-H358 cells were grown and maintained using media and procedures recommended by the ATCC. On the day prior to compound addition, cells were plated in 384-well cell culture plates (40 μl/well) and grown overnight in a 37° C., 5% CO2 incubator. Test compounds were prepared in 10, 3-fold dilutions in DMSO, with a high concentration of 10 mM. On the day of assay, 40 nL of test compound was added to each well of cell culture plate using an Echo550 liquid handler (LabCyte®). Concentrations of test compound were tested in duplicate. After compound addition, cells were incubated 4 hours at 37° C., 5% CO2. Following incubation, culture medium was removed and cells were washed once with phosphate buffered saline.
In some experiments, cellular pERK level was determined using the AlphaLISA SureFire Ultra p-ERK1/2 Assay Kit (PerkinElmer). Cells were lysed in 25 μL lysis buffer, with shaking at 600 RPM at room temperature. Lysate (10 μL) was transferred to a 384-well Opti-plate (PerkinElmer) and 5 μL acceptor mix was added. After a 2-hour incubation in the dark, 5 μL donor mix was added, the plate was sealed, and incubated 2 hours at room temperature. Signal was read on an Envision plate reader (PerkinElmer) using standard AlphaLISA settings. Analysis of raw data was carried out in Excel (Microsoft) and Prism (GraphPad). Signal was plotted vs. the decadal logarithm of compound concentration, and IC50 was determined by fitting a 4-parameter sigmoidal concentration response model.
In other experiments, cellular pERK was determined by In-Cell Western. Following compound treatment, cells were washed twice with 200 μL tris buffered saline (TBS) and fixed for 15 minutes with 150 μL 4% formaldehyde in TBS. Fixed cells were washed 4 times for 5 minutes with TBS containing 0.1% Triton X-100 (TBST) and then blocked with 100 μL Odyssey blocking buffer (LI-COR) for 60 minutes at room temperature. Primary antibody (pERK, CST-4370, Cell Signaling Technology) was diluted 1:200 in blocking buffer, and 50 μL were added to each well and incubated overnight at 4° C. Cells were washed 4 times for 5 minutes with TBST. Secondary antibody (IR-800CW rabbit, LI-COR, diluted 1:800) and DNA stain DRAQ5 (LI-COR, diluted 1:2000) were added and incubated 1-2 hours at room temperature. Cells were washed 4 times for 5 minutes with TBST. Plates were scanned on a Li-COR Odyssey CLx Imager. Analysis of raw data was carried out in Excel (Microsoft) and Prism (GraphPad). Signal was plotted vs. the decadal logarithm of compound concentration, and IC50 was determined by fitting a 4-parameter sigmoidal concentration response model.

| Compound | IC50 (NCI-H358 (K-Ras G12C)) | further results |
| --- | --- | --- |
| CCn1c(-c2cc(N3CCN4CCCC[C@@H]4C3)cnc2[C@H](C)OC)c2c3cc(ccc31)-c1cccc(c1)C[C@H](NC(=O)OC(C)(C)C)C(=O)N1CCC[C@H](N1)C(=O)OCC(C)(C)C2 | – | ring closure, isolated yield ([1]; from CCn1c(-c2cc(N3CCN4CCCC[C@@H]4C3)cnc2[C@H](C)OC)c(CC(C)(C)CO)c2cc(-c3cccc(C[C@H](NC(=O)OC(C)(C)C)C(=O)N4CCC[C@@H](C(=O)O)N4)c3)ccc21, ester bond, EDCI/HOBt/DIPEA, 11.3 mM, 16.0 h): 62% |
| CCn1c(-c2cc(N3CCN4CCOC[C@@H]4C3)cnc2[C@H](C)OC)c2c3cc(ccc31)C1=CCCN(C1)C[C@H](NC(=O)OC(C)(C)C)C(=O)N1CCC[C@H](N1)C(=O)OCC(C)(C)C2 | – | ring closure, isolated yield ([1]; from CCn1c(-c2cc(N3CCN4CCOC[C@@H]4C3)cnc2[C@H](C)OC)c(CC(C)(C)CO)c2cc(C3=CCCN(C[C@H](NC(=O)OC(C)(C)C)C(=O)N4CCC[C@@H](C(=O)O)N4)C3)ccc21, ester bond, EDC.HCl/HOBt/DIEA, 11.3 mM, 0.0 °C, 2.0 h): 67% |
| CO[C@@H](C)c1ncc(N2CCN3CCOC[C@@H]3C2)cc1-c1c2c3cc(ccc3n1CC(F)(F)F)-c1cccc(c1)C[C@H](NC(=O)OC(C)(C)C)C(=O)N1CCC[C@H](N1)C(=O)OCC(C)(C)C2 | – | ring closure, isolated yield ([1]; from CO[C@@H](C)c1ncc(N2CCN3CCOC[C@@H]3C2)cc1-c1c(CC(C)(C)CO)c2cc(-c3cccc(C[C@H](NC(=O)OC(C)(C)C)C(=O)N4CCC[C@@H](C(=O)O)N4)c3)ccc2n1CC(F)(F)F, ester bond, EDCI/HOBt/DIPEA, 5.3 mM, 16.0 h): 98% |
| CO[C@@H](C)c1ncccc1-c1c2c3cc(ccc3n1CC(F)(F)F)-c1coc(n1)C[C@H](NC(=O)OCc1ccccc1)C(=O)N1CCC[C@H](N1)C(=O)OCC(C)(C)C2 | – | ring closure, isolated yield ([1]; from CO[C@@H](C)c1ncccc1-c1c(CC(C)(C)COC(=O)[C@@H]2CCCNN2)c2cc(-c3coc(C[C@H](NC(=O)OCc4ccccc4)C(=O)O)n3)ccc2n1CC(F)(F)F, amide bond, EDCI/HOBt/DIEA, 6.3 mM, 16.0 h): 21% |
| CO[C@@H](C)c1ncccc1-c1c2c3cc(ccc3n1CC(F)(F)F)C1CCN(C1)C[C@H](NC(=O)OC(C)(C)C)C(=O)N1CCC[C@H](N1)C(=O)OCC(C)(C)C2 | – | ring closure, isolated yield ([1]; from CO[C@@H](C)c1ncccc1-c1c(CC(C)(C)CO)c2cc(C3CCN(C[C@H](NC(=O)OC(C)(C)C)C(=O)N4CCC[C@@H](C(=O)O)N4)C3)ccc2n1CC(F)(F)F, ester bond, EDCI/HOBt/DIEA, 7.1 mM, 16.0 h): 21% |
| prop-2-en-1-yl N-[(7S,13S,19M)-21-ethyl-20-[2-[(1 S)-1-methoxyethyl]pyridin-3-yl]-17,17-dimethyl-8,14-dioxo-4,15-dioxa-3,9,21,27,28-pentaazapentacyclo[17.5.2.1^[2,5]0.1^[9,13]0.0^[22,26]]octacosa-1(25),2,5(28),19,22(26),23-hexaen-7-yl]carbamate | – | ring closure, isolated yield ([1]; amide bond, HATU/DIEA, 139.0 mM): 33% |
| tert-butyl ((6^3S,4S)-1^2-(2-((S)-1-methoxyethyl)pyridin-3-yl)-10,10-dimethyl-5,7-dioxo-1^1-(2,2,2-trifluoroethyl)-6^1,6^2,6^3,6^4,6^5,6^6-hexahydro-1^1H-8-oxa-1(5,3)-indola-6(1,3)-pyridazina-2(3,1)-azetidinacycloundecaphane-4-yl)carbamate | – | ring closure, isolated yield ([1]; ester bond, EDCI/HOBt/DIEA, 6.4 mM, 30.0 °C): 37% |
| tert-butyl ((6^3S,4S,Z)-11-ethyl-1^2-(2-((S)-1-methoxyethyl)pyridin-3-yl)-10,10-dimethyl-5,7-dioxo-6^1,6^2,6^3,6^4,6^5,6^6-hexahydro-1^1H-8-oxa-2(5,3)-oxadiazola-1(5,3)-indola-6(1,3)-pyridazinacycloundecaphane-4-yl)carbamate | – | ring closure, isolated yield ([1]; ester bond, EDCI/HOBt/DIEA, 6.8 mM): 18% |
| tert-butyl ((6^3S, 4S)-1^2-(2-((S)-1-methoxyethyl) pyridin-3-yl)-10,10-dimethyl-5,7-dioxo-1^1-(2,2,2-trifluoroethyl)-6^1,6^2,6^3,6^4,6^5,6^6-hexahydro-1^1H-8-oxa-1(5,3)-indola-6(1,3)-pyridazina-2(3,1)-piperidinacycloundecaphane-4-yl)carbamate | – | ring closure, isolated yield ([1]; ester bond, EDCI/HOBt/DIEA, 6.1 mM): 8% and 9% |

Continued, in another order:

| IC50 (NCI-H358 (K-Ras G12C)) | Compound | further results |
| --- | --- | --- |
| > 1 µM | C=CC(=O)N1CCOC2(CCN(C(=O)N(C)[C@H](C(=O)N[C@H]3Cc4cncc(n4)-c4ccc5c(c4)c(c(-c4cccnc4[C@H](C)OC)n5CC)CC(C)(C)COC(=O)[C@@H]4CCCN(N4)C3=O)C(C)C)CC2)C1 (atropisomer, axis not shown) [EA36] | – |
| > 1 µM | C=CC(=O)N1COC2(CCN(C(=O)N(C)[C@H](C(=O)N[C@H]3CC4=NC=C(O4)c4ccc5c(c4)c(c(-c4cccnc4[C@H](C)OC)n5CC)CC(C)(C)COC(=O)[C@@H]4CCCN(N4)C3=O)C(C)C)CC2)C1 (atropisomer, axis not shown) [EA37] | – |
| > 1 µM | C=CC(=O)N1CCN(CC)C2(CCN(C(=O)N(C)[C@H](C(=O)N[C@H]3C[C@H]4CN(CCO4)c4ccc5c(c4)c(c(-c4cccnc4[C@H](C)OC)n5CC)CC(C)(C)COC(=O)[C@@H]4CCCN(N4)C3=O)C(C)C)CC2)C1 (atropisomer, axis not shown) [EA38] | – |
| > 1 µM | C=CC(=O)N1CC2(CCN(C(=O)N(C)[C@H](C(=O)N[C@H]3C[C@H]4CN(CCO4)c4ccc5c(c4)c(c(-c4cccnc4[C@H](C)OC)n5CC)CC(C)(C)COC(=O)[C@@H]4CCCN(N4)C3=O)C(C)C)CC2)C1 (atropisomer, axis not shown) [EA121] | – |
| > 1 µM | C=CC(=O)N1CCOC2(CCN(C(=O)N(C)[C@H](C(=O)N[C@H]3Cc4cncc(c4)-c4ccc5c(c4)c(c(-c4cccnc4[C@H](C)OC)n5CC)CC(C)(C)COC(=O)[C@@H]4CCCN(N4)C3=O)C(C)C)CC2)C1 (atropisomer, axis not shown) [EA124] | – |
| > 1 µM | CCn1c(-c2cccnc2[C@H](C)OC)c2c3cc(ccc31)N1CCO[C@@H](C[C@H](NC(=O)[C@H](C(C)C)N(C)C(=O)N3CCC4(CC3)CN(C(=O)/C=C/CF)C4)C(=O)N3CCC[C@H](N3)C(=O)OCC(C)(C)C2)C1 (atropisomer, axis not shown) [EA128] | – |
| > 0.89 µM | C=CC(=O)N1CCOC2(CCN(C(=O)N(C)[C@H](C(=O)N[C@H]3C[C@@]4(C)CN(CCO4)c4ccc5c(c4)c(c(-c4cccnc4[C@H](C)OC)n5CC)CC(C)(C)COC(=O)[C@@H]4CCCN(N4)C3=O)C(C)C)CC2)C1 (atropisomer, axis not shown) [EA130] | – |
| > 1 µM | C=CC(=O)N1CCOC2(C1)CN(C(=O)N(C)[C@H](C(=O)N[C@H]1C[C@H]3CN(CCO3)c3ccc4c(c3)c(c(-c3cccnc3[C@H](C)OC)n4CC)CC(C)(C)COC(=O)[C@@H]3CCCN(N3)C1=O)C(C)C)C2 (atropisomer, axis not shown) [EA136] | – |
| > 1 µM | C=CC(=O)N1CCN(C)C2(CCN(C(=O)N(C)[C@H](C(=O)N[C@H]3C[C@H]4CN(CCO4)c4ccc5c(c4)c(c(-c4cccnc4[C@H](C)OC)n5CC)CC(C)(C)COC(=O)[C@@H]4CCCN(N4)C3=O)C(C)C)CC2)C1 (atropisomer, axis not shown) [EA189] | – |
| > 1 µM | C=CC(=O)N1CCOC2(CCN(C(=O)N(C)[C@H](C(=O)N[C@H]3Cc4nccc(n4)-c4ccc5c(c4)c(c(-c4cccnc4[C@H](C)OC)n5CC)CC(C)(C)COC(=O)[C@@H]4CCCN(N4)C3=O)C(C)C)CC2)C1 (atropisomer, axis not shown) [EA191] | – |
| > 1 µM | CCn1c(-c2cccnc2[C@H](C)OC)c2c3cc(ccc31)C1=CCCN(C1)C[C@H](NC(=O)[C@H](C(C)C)N(C)C(=O)N1CCC3(CCN(C(=O)/C=C/CN(C)C)C3)CC1)C(=O)N1CCC[C@H](N1)C(=O)OCC(C)(C)C2 (atropisomer, axis not shown) [EA192] | – |
